These results are taken from patent EP1019398B1, “BENZO(5,6)CYCLOHEPTA(1,2-B)PYRIDINE DERIVATIVES USEFUL FOR INHIBITION OF FARNESYL PROTEIN TRANSFERASE” (SCHERING CORPORATION, priority 1997, dated 1998).

The subject of one test is COS Cell. Briefly: COS Cell IC50 (Cell-Based Assay), procedure of WO 95/10516. Particulars: one range stated for the listed examples. How it is done: FPT IC50 (inhibition of farnesyl protein transferase. in vitro enzyme assay) and COS Cell IC50 (Cell-Based Assay) were determined following the assay procedures described in WO 95/10516, published April 20. 1995. GGPT IC50 (inhibition of geranylgeranyl protein transferase, in vitro enzyme assay). Cell Mat Assay, and anti-tumor activity (in vivo anti-tumor studies) could be determined by the assay procedures described in WO 95/10516. The disclosure of WO 95/10516 is incorporated herein by reference thereto.

A further test concerns Human tumor cells. As to the kind of experiment: Soft Agar Assay (anchorage-independent growth, colony count after MTT staining). Particulars: 0.3% agarose top layer over 0.6% agarose, 10-16 days at 37°C under 5% CO2. The test is classed as cell-based. The protocol: Anchorage-independent growth is a characteristic of tumorigenic cell lines. Human tumor cells can be suspended in growth medium containing 0.3% agarose and an indicated concentration of a farnesyl transferase inhibitor. The solution can be overlayed onto growth medium solidified with 0.6% agarose containing the same concentration of farnesyl transferase inhibitor as the top layer. After the top layer is solidified, plates can be incubated for 10-16 days at 37°C under 5% CO2 to allow colony outgrowth. After incubation, the colonies can be stained by overlaying the agar with a solution of MTT (3-[4,5-dimethylthiazol-2-yl]-2,5-diphenyltetrazolium bromide, Thiazolyl blue) (1 mg/mL in PBS). Colonies can be counted and the IC50's can be determined.

Turning to `O=C(CN1CC[S+]([O-])CC1)N1CCN(C2c3ccc(Cl)c(Br)c3CCc3cc(Br)cnc32)CC1` (single isomer, unassigned) [Example 39], the IC50 in the test with COS Cell fell in the range of 1.8 to 143 nM.

`O=C(CC1CCOCC1)N1CCC([C@H]2c3ncc(Br)cc3CCc3cc(Cl)cc(Br)c32)CC1` [Example 1]: the IC50 in the test with COS Cell was in the range of 1.8 to 143 nM.

As to `O=C(C=C1CCOCC1)N1CCC([C@H]2c3ncc(Br)cc3CCc3cc(Cl)cc(Br)c32)CC1` [Example 2], the half-inhibitory concentration (IC50) in the test on COS Cell fell in the range of 1.8 to 143 nM.

For the compound `O=C(CC1CCSCC1)N1CCC([C@H]2c3ncc(Br)cc3CCc3cc(Cl)cc(Br)c32)CC1` [Example 5], in the test with COS Cell, the concentration for half-maximal inhibition (IC50) was 1.8 to 143 nM.

Take `O=C(CC1CCCCO1)N1CCC([C@H]2c3ncc(Br)cc3CCc3cc(Cl)cc(Br)c32)CC1` (some centres unmarked) [Example 8]: in the test with COS Cell, the IC50 is 1.8 to 143 nM.

As for `O=C(CN1CCSCC1)N1CCC([C@H]2c3ncc(Br)cc3CCc3cc(Cl)cc(Br)c32)CC1` [Example 37], in the test with COS Cell, the half-inhibitory concentration (IC50) is 1.8 to 143 nM.

Turning to `O=C(CC1CCOCC1)N1CCC(C2c3c(Br)cc(Cl)cc3CCc3cc(Br)c[n+]([O-])c32)CC1` (centres unmarked) [Example 40], the concentration for half-maximal inhibition (IC50) is 1.8 to 143 nM with COS Cell and 8 nM with Human tumor cells.
